System: spontaneously hypertensive rats (SHR)
Test: Antihypertensive activity test: blood pressure and heart rate of spontaneously hypertensive rats (SHR)
Assay type: in vivo, rat
Settings: 200 mg/kg; for SHR blood pressure (SBP), time after administration 1 h / SHR blood pressure (SBP), time after administration 2 h / SHR blood pressure (SBP), time after administration 3 h / SHR blood pressure (SBP), time after administration 4 h / SHR blood pressure (SBP), time after administration 5 h / SHR blood pressure (SBP), time after administration 6 h / Blood pressure (SBP, mmHg) After administration / Heart rate (beat/min) After administration / Blood pressure (SBP, mmHg) Baseline / Heart rate (beat/min) Baseline: n = 8; for SHR heart rate, time after administration 0 h / SHR heart rate, time after administration 1 h / SHR heart rate, time after administration 2 h / SHR heart rate, time after administration 3 h / SHR heart rate, time after administration 4 h / SHR heart rate, time after administration 5 h / SHR heart rate, time after administration 6 h: N = 8; for Blood pressure (SBP, mmHg) After administration / Heart rate (beat/min) After administration: after administration (6 h M ± SD); for Heart rate Difference (beat/min): after administration minus baseline (6 h); for Blood pressure Difference mmHg: baseline minus after administration (6 h); for Blood pressure (SBP, mmHg) Baseline / Heart rate (beat/min) Baseline: before administration, M ± SD
Protocol: Tested Drugs: Compounds of the Invention. The dosage of all compound was uniformly set to 200 mg/kg.
In the test, changes in the blood pressure before and after the administration were detected, and compared with the basic value, a reduction of SBP ≥20 mmHg after administration was judged as effective antihypertensive effects; and at the same time, changes in the heart rate before and after the administration were detected.
Heart rate was expressed as mean±standard deviation (x±s). The changes of heart rate before and after the administration were compared by using Two-sample equal variance paired t test, and P<0.05 was regarded as the standard of statistically significant difference.

Row | SMILES | SBP Difference before and after administration, 1 h [mmHg] | SHR blood pressure (SBP), time after administration 1 h [mmHg] | SBP Difference before and after administration, 2 h [mmHg] | SHR blood pressure (SBP), time after administration 2 h [mmHg] | SBP Difference before and after administration, 3 h [mmHg] | SHR blood pressure (SBP), time after administration 3 h [mmHg] | SBP Difference before and after administration, 4 h [mmHg] | SHR blood pressure (SBP), time after administration 4 h [mmHg] | SBP Difference before and after administration, 5 h [mmHg] | SHR blood pressure (SBP), time after administration 5 h [mmHg] | SBP Difference before and after administration, 6 h [mmHg] | SHR blood pressure (SBP), time after administration 6 h [mmHg] | further results
1 | CC(C)c1cccc(C(O)CO)c1 (stereo not drawn) [Compound 9] | 2 | 192 ± 11.6 | 6 | 188 ± 12.1 | 17 | 177 ± 12.3 | 14 | 180 ± 12.85 | 10 | 184 ± 16.0 | 8 | 186 ± 17.8 | –
2 | CC(=O)c1ccc(C(O)CO)cc1 (stereo not drawn) [Compound 10] | 6 | 186 ± 9.54 | 10 | 182 ± 7.36 | 13 | 179 ± 4.07 | 9 | 183 ± 7.65 | 7 | 185 ± 5.64 | 2 | 190 ± 6.54 | –
3 | Cc1ccc(C(O)CO)cc1 (stereo not drawn) [Compound 12] | 3 | 184 ± 10.6 | 5 | 182 ± 10.4 | 4 | 183 ± 9.90 | 9 | 178 ± 6.61 | 5 | 182 ± 7.25 | 3 | 184 ± 12.1 | SHR heart rate, time after administration 0 h (0 h): 333 ± 44.0 beat/min; Heart rate Difference before and after administration, 1 h: −5 beat/min; SHR heart rate, time after administration 1 h: 328 ± 47.6 beat/min; Heart rate Difference before and after administration, 2 h: 8 beat/min; SHR heart rate, time after administration 2 h: 342 ± 46.9 beat/min; Heart rate Difference before and after administration, 3 h: 15 beat/min; SHR heart rate, time after administration 3 h: 348 ± 53.2 beat/min; Heart rate Difference before and after administration, 4 h: 3 beat/min; SHR heart rate, time after administration 4 h: 336 ± 54.5 beat/min; Heart rate Difference before and after administration, 5 h: −3 beat/min; SHR heart rate, time after administration 5 h: 331 ± 51.0 beat/min; Heart rate Difference before and after administration, 6 h: 3 beat/min; SHR heart rate, time after administration 6 h: 336 ± 52.7 beat/min; Blood pressure (SBP, mmHg) After administration: 181 ± 8.80 mmHg; Heart rate (beat/min) After administration: 336 ± 49.5 beat/min; Heart rate Difference (beat/min): 3 beat/min; Blood pressure Difference mmHg: 6 mmHg; Blood pressure (SBP, mmHg) Baseline: 187 ± 11.9 mmHg; Heart rate (beat/min) Baseline: 333 ± 44.0 beat/min
4 | CCC(O)c1cccc(CO)c1 (stereo not drawn) [Compound 13] | 3 | 186 ± 12.4 | 12 | 178 ± 12.0 | 19 | 171 ± 13.1 | 14 | 176 ± 11.4 | 10 | 180 ± 11.9 | 14 | 176 ± 10.1 | SHR heart rate, time after administration 0 h (0 h): 319 ± 21.0 beat/min; Heart rate Difference before and after administration, 1 h: 6 beat/min; SHR heart rate, time after administration 1 h: 325 ± 24.2 beat/min; Heart rate Difference before and after administration, 2 h: 14 beat/min; SHR heart rate, time after administration 2 h: 332 ± 38.9 beat/min; Heart rate Difference before and after administration, 3 h: 17 beat/min; SHR heart rate, time after administration 3 h: 335 ± 43.8 beat/min; Heart rate Difference before and after administration, 4 h: 15 beat/min; SHR heart rate, time after administration 4 h: 334 ± 45.8 beat/min; Heart rate Difference before and after administration, 5 h: 10 beat/min; SHR heart rate, time after administration 5 h: 329 ± 39.5 beat/min; Heart rate Difference before and after administration, 6 h: 2 beat/min; SHR heart rate, time after administration 6 h: 320 ± 43.1 beat/min; Blood pressure (SBP, mmHg) After administration: 178 ± 11.2 mmHg; Heart rate (beat/min) After administration: 329 ± 27.7 beat/min; Heart rate Difference (beat/min): 10 beat/min; Blood pressure Difference mmHg: 12 mmHg; Blood pressure (SBP, mmHg) Baseline: 190 ± 13.2 mmHg; Heart rate (beat/min) Baseline: 319 ± 21.0 beat/min
5 | COc1ccc([C@@H](O)[C@H](C)O)cc1Cl [Compound 14] | 3 | 182 ± 11.6 | 7 | 178 ± 10.8 | 8 | 177 ± 10.9 | 5 | 18 ± 15.80 | 1 | 184 ± 16.0 | −1 | 186 ± 17.7 | –
6 | CC(=O)OC(C)C(OC(C)=O)c1ccccc1 (stereo not drawn) [Compound 15] | 14 | 176 ± 9.55 | 18 | 172 ± 7.36 | 21 | 169 ± 4.07 | 17 | 173 ± 7.15 | 15 | 175 ± 5.61 | 10 | 180 ± 6.66 | –
7 | COc1ccc(C(O)C(=O)O)cc1 (stereo not drawn) [Compound 17] | 9 | 186 ± 12.4 | 7 | 188 ± 12.0 | 14 | 181 ± 13.1 | 9 | 186 ± 11.4 | 15 | 180 ± 11.9 | 9 | 186 ± 10.1 | SBP Difference before and after administration, 0 h (0 h): 0 mmHg
